Results from the NIST ThermoML archive (doi:10.1016/j.fluid.2016.02.005).

Conditions: Liquid, Closed cell (Static) method

C=C(F)C(F)(F)F [2,3,3,3-tetrafluoro-1-propene]
Conditions | vapor or sublimation pressure [kPa]
254.1 K | 156.8
273.43 K | 318.2
293.24 K | 592.7
303.17 K | 783.9
318.08 K | 1153.4
332.97 K | 1641.5
348.4 K | 2288.8
